According to US20030022821A1, “Bioactive peptides” (priority 1998, published 2003):
Like-named read-outs stand apart in the source and are kept apart here. Ends that are not written are not given here.

Legend:
human red blood cells = assay: Hemolytic assay; type: cell-based
Meth A tumors = assay: Tumor regression, murine Meth A fibrosarcoma; type: in vivo, mice; settings: for regression of Meth A tumors: injected intratumorally, treatment on day 7 and 10
Description: Specific pathogen-free CB6F1 (Balb/c×C57 BL/6) female mice of about 8 weeks of age were obtained from Charles River (Germany). The mice were kept on standard laboratory chow and water. Tumor bearing mice were serologically screened for viral (LDH, CMV) and mycoplasmic infection and in all cases tested negative.
After a single inoculation of 5×10^7 viable Meth A cells, different LF peptides were injected intratumorally (LFB-14-31, LFB 17-31 Pmc, 500 μg in a 50 μl dose; LFB 17-31, 1000 μg in a 50 μl dose), on day 7 and day 10. LFB 14-31 was also injected intraperitoneally (PBI), 500 μg/ml. Saline only was injected in the control mice (50 μl) (K1,K2,K3). The tumor diameter (mean of transversal and longitudinal) were measured with an electronic calipper.

[1] = tested on: human promyelotic leukemia cell line HL 60; assay: Cytotoxicity on HL 60 cells, MTT; type: cell-based
[2] = tested on: Meth A cells (murine sarcoma cell line); assay: Cytotoxicity on Meth A cells, MTT method
How it was run: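 Meth A cells in RPMI with 10% FBS exposed to peptides (final e.g. […]) for 4 h, then MTT added for 2 h; formazan dissolved in acid isopropanol and absorbance read at 590 nm. Medium alone and 1% Triton X-100 defined 0% and 100% killing.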

[3] = tested on: Staphylococcus aureus ATCC 25923; type: cell-based
How it was run: (§1)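 Peptides were assayed against mid-log cultures by microdilution (1% Bacto Peptone water, 2×10^6 CFU/ml). Their solution concentration was measured by HPLC before and after plating. Triplicate determinations.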

[4] = tested on: Escherichia coli ATCC 25922; type: cell-based
How it was run: as §1

[5] = tested on: MRSA (methicillin resistant S. aureus); type: cell-based
Description: The bacterial strains used were: Escherichia coli ATCC 25922 and Staphylococcus aureus ATCC 25923. All strains were stored at −70° C. The bacteria were grown in 2% Bacto Peptone water (Difco 1807-17-4). All tests were performed with bacteria in mid-logarithmic growth phase. Determination of the minimum inhibitory concentration (MIC) of the peptides for bacterial strains were performed in 1% Bacto Peptone water. A standard microdilution technique with an inoculum of 2×10^6 CFU/ml was used. All assays were performed in triplets. Since the peptides are positively charged and therefore could adhere to the plastic wells, we controlled the actual concentration of the peptides in the solution by HPLC. There was no difference between the concentration of the peptides before or after adding the solution to the plastic wells.
Table 13 below gives the antibacterial activity and toxicity data for some preferred peptides of the invention. MRSA is methicillin resistant S. aureus and MRSE is methicillin resistant S. epidermidis.

[6] = type: physicochemical
Source text: Peptide W3714, with three additional tryptophan residues (a total of five tryptophan residues in the peptide), has decreased activity. […] This has been physically observed during MIC testing procedures when the peptide tended to precipitate at high concentrations.

[7] = at the concentration tested, 4 hours

MIC S. aureus ([3]; ATCC 25923) | MIC E. coli ([4]; ATCC 25922) | MIC MRSA ([5]; methicillin resistant) [µM] | Compound | regression of Meth A tumors (Meth A tumors) | MIC S. aureus ATCC 25923 ([3]; Table 1, value in brackets) [µM] | MIC E. coli ATCC 25922 ([4]; Table 1, value in brackets) [µM] | cytotoxic effect on human HL 60 cells [1, 7] | MIC S. aureus ([3]; Table 6, unit assumed) [µg/mL] | MIC E. coli ([4]; Table 6) [µg/mL] | EC50 (human red blood cells) [µM] | % Hemolysis 10 μg/ml (human red blood cells; red cells of human) [%] | % Hemolysis 100 μg/ml (human red blood cells; red cells of human) [%] | other results
>250 µg/mL | 70 µg/mL |  | CSCC[C@H](NC(=O)[C@H](CCCNC(=N)N)NC(=O)[C@H](Cc1c[nH]c2ccccc12)NC(=O)[C@H](CCC(N)=O)NC(=O)[C@H](Cc1c[nH]c2ccccc12)NC(=O)[C@H](CCCNC(=N)N)NC(=O)[C@H](CCCNC(=N)N)NC(=O)[C@H](CSCNC(C)=O)NC(=O)[C@H](CCCCN)NC(=O)[C@H](Cc1ccccc1)NC(=O)[C@H](Cc1c[nH]c2ccccc12)NC(=O)[C@H](CCC(=O)O)NC(=O)[C@@H]1CCCN1)C(=O)N[C@@H](CCCCN)C(=O)N[C@@H](CCCCN)C(=O)N[C@@H](CC(C)C)C(=O)NCC(=O)N[C@@H](C)C(=O)O [LFB 14-31] | induced regression of the Meth A tumors | 80 | 28 |  |  |  |  |  |  | EC50 (human red blood cells; red cells of human): > 404 µM; eradication of Meth A tumors (Meth A tumors; treated intraperitoneally): tumors were also eradicated; cytotoxic effect on human HL 60 cells [1]: no cytotoxic effect; MethA IC50 ([2]; Table 7, peptide required to kill 50% of MethA cells): no activity; MIC S. aureus ATCC 25923 ([3]; ATCC 25923): 200 µg/mL; MIC E. coli ATCC 25922 ([4]; ATCC 25922): 70 µg/mL
 |  |  | CSCC[C@H](NC(=O)[C@H](CCCNC(=N)N)NC(=O)[C@H](Cc1c[nH]c2ccccc12)NC(=O)[C@H](CCC(N)=O)NC(=O)[C@H](Cc1c[nH]c2ccccc12)NC(=O)[C@H](CCCNC(=N)N)NC(=O)[C@H](CCCNC(=N)N)NC(=O)[C@H](CSCNC(C)=O)NC(=O)[C@H](CCCCN)NC(=O)[C@@H](N)Cc1ccccc1)C(=O)N[C@@H](CCCCN)C(=O)N[C@@H](CCCCN)C(=O)N[C@@H](CC(C)C)C(=O)NCC(=O)N[C@@H](C)C(=O)O [LFB 17-31, H2N-Phe-Lys-Cys-Arg-Arg-Trp-Gln-Trp-Arg-Met-Lys-Lys-Leu-Gly-Ala-COOH] | induced regression of the Meth A tumors | 50 | 20 | no cytotoxic effect | 100 | 50 |  |  |  | cytotoxic effect on Meth A cells ([2]; 1 mg/ml, 4 hours incubation): weak effect; cytotoxic effect on Meth A cells ([2]; concentrations up to 1 mg/ml, ½ hour incubation): no significant cytotoxic effect; MIC S. aureus ([3]; Table 3, unit assumed): 100 µg/mL; MIC S. aureus ([3]; Table 4, unit assumed): 100 µg/mL; MIC E. coli ([4]; Table 3): 50 µg/mL; MIC E. coli ([4]; Table 4): 50 µg/mL
 |  |  | CC[C@H](C)[C@H](NC(=O)[C@H](CO)NC(=O)[C@@H]1CCCN1C(=O)[C@H](C)NC(=O)CNC(=O)[C@H](CC(C)C)NC(=O)[C@H](CCCCN)NC(=O)[C@H](CCCCN)NC(=O)[C@H](CCSC)NC(=O)[C@H](CCCNC(=N)N)NC(=O)[C@H](Cc1c[nH]c2ccccc12)NC(=O)[C@H](CCC(N)=O)NC(=O)[C@H](Cc1c[nH]c2ccccc12)NC(=O)[C@H](CCCNC(=N)N)NC(=O)[C@H](CCCNC(=N)N)NC(=O)[C@H](CSCNC(C)=O)NC(=O)[C@H](CCCCN)NC(=O)[C@@H](N)Cc1ccccc1)C(=O)N[C@H](C(=O)N[C@@H](CSCNC(C)=O)C(=O)N[C@H](C(=O)N[C@@H](CCCNC(=N)N)C(=O)N[C@@H](CCCNC(=N)N)C(=O)N[C@@H](C)C(=O)N[C@@H](Cc1ccccc1)C(=O)O)C(C)C)[C@@H](C)O [LFB (17-41), reference compound] |  |  |  | weak concentration dependant cytotoxic effect |  |  |  |  |  | MIC S. aureus ATCC 25923 ([3]; Table 1): 30 µg/mL; MIC E. coli ATCC 25922 ([4]; Table 1): 30 µg/mL
9.6 µM | 4.8 µM | 2.4 | CSCC[C@H](NC(=O)[C@H](CCCNC(=N)N)NC(=O)[C@H](Cc1ccc2ccccc2c1)NC(=O)[C@H](CCC(N)=O)NC(=O)[C@H](Cc1ccc2ccccc2c1)NC(=O)[C@H](CCCNC(=N)N)NC(=O)[C@H](CCCNC(=N)N)NC(=O)[C@H](CSCNC(C)=O)NC(=O)[C@H](CCCCN)NC(=O)[C@@H](N)Cc1ccccc1)C(=O)N[C@@H](CCCCN)C(=O)N[C@@H](CCCCN)C(=O)N[C@@H](CC(C)C)C(=O)NCC(=O)N[C@@H](C)C(=O)O [LFB Nal6, 8] |  |  |  |  |  |  | > 479 | 2.8 | 4.9 | EC 50 (human red blood cells): >1000 µg/mL; MIC MRSA ([5]; Table 13, 8): 5.0 µg/mL; MIC S. aureus ([3]; Table 8): 20 µg/mL; MIC S. aureus ([3]; Table 13, 8): 20.0 µg/mL; MIC E. coli ([4]; Table 8): 10 µg/mL; MIC E. coli ([4]; Table 13, 8): 10.0 µg/mL
20 µg/mL | 20 µg/mL |  | H-FKWRRWWWRMKKLWA-OH [LFB W3, 7, 14, H2N-Phe-Lys-Trp-Arg-Arg-Trp-Trp-Trp-Arg-Met-Lys-Lys-Leu-Trp-Ala-COOH] |  |  |  |  | 20 | 20 |  | 4.02 | 66.1 | solubility in aqueous solutions [6]: less soluble in aquous solutions
 | 6.2 µM | 1.5 | YRWWRWARRW-NH2 [LFM 17-26 A7R2,8, 9W3,4, 10Y1NH2] |  |  |  |  |  |  | 543 ± 56 |  |  | EC 50 (human red blood cells; Table 13, toxicity (hemolysis)): 880 ± 90 µg/mL; MIC MRSA ([5]; Table 13): 2.5 µg/mL; MIC S. aureus ([3]; Table 13): 1.0 µg/mL; MIC E. coli ([4]; Table 10): 10 µg/mL; MIC E. coli ([4]; Table 13): 10.0 µg/mL
